Data on 18 molecules can be found in paper PMC10226132, “First-in-Class Selective Inhibitors of the Lysine Acetyltransferase KAT8” (Journal of Medicinal Chemistry, 2023).

Common to all, as to type: biochemical
The target of one assay is T1, KAT8 (Homo sapiens, UniProt Q9H7Z6).
T1 construct: using the previously purified KAT8 (173–458, 5 nM); 6xHis tag with TEV protease cleavage site (N, cleaved yes); made in house; host or cells: E. coli BL21(DE3)
T1 sequence (Q9H7Z6 173-458): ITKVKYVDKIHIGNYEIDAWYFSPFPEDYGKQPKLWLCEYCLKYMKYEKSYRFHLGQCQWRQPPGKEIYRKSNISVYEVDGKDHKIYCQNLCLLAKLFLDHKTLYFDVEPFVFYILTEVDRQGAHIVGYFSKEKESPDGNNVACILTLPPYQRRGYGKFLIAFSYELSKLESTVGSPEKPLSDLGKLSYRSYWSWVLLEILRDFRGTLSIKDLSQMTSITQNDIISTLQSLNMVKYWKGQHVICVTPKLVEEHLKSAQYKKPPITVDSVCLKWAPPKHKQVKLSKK
Put plainly: Radioactive KAT8 inhibition assay. The procedure: Purified KAT8 was incubated with the relevant inhibitor (1% DMSO final) in a 2-fold serial dilution starting at 200 μM for 20 min at rt. Then, [^3H]Ac-CoA and biotinylated peptide were added to a total assay volume of 50 μL and the reaction mixture was incubated at rt for 4 h. The reaction was stopped, and the mixture was transferred to a 96-well streptavidin scintillant coated FlashPlate (Perkin Elmer) and incubated for 60 min at rt. The FlashPlate was washed with 0.1% Tween-20, and the liquid scintillation counting (MicroBeta Microplate Counter, Perkin Elmer) was employed to measure the radioactive signal. Experiments were performed in biological triplicates. Signal reduction compared to control was plotted (as inhibition percentage) as a function of compound concentration and fitted by nonlinear regression (GraphPad Prism 8.0) finally yielding the IC50 values.

The target of another assay is T2, KAT3B (Homo sapiens, UniProt Q09472).
T2 construct: KAT3B (aa 1284–1672, 1 nM); purchased Reaction Biology Corporation
T2 sequence (Q09472 1284-1672): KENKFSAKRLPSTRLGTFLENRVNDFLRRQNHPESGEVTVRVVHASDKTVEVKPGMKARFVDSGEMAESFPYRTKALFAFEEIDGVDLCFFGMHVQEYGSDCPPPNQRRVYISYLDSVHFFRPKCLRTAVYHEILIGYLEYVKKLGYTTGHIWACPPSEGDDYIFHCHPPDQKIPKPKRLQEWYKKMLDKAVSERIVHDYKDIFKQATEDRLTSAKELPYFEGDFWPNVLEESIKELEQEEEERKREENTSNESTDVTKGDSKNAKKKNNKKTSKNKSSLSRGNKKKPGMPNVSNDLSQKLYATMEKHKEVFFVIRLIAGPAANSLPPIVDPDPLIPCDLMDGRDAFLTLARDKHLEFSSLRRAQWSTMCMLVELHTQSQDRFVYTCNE
Put plainly: HotSpot KAT assay, KAT3B. Particulars: read-out: IC50 KAT3B (1 nM); enzyme 1 nM; NI = no inhibition at 200 μM; mean ± SD of three independent experiments. Here is the method: The effects of the compounds on other KATs were determined using the HotSpot KAT assay (Reaction Biology Corporation, Malvern, PA, USA) according to the supplier’s procedure. […] Histone peptide acetylation was assessed by liquid scintillation counting using a Tri-Carb 2800TR Liquid Scintillation Analyzer (Perkin Elmer). Experiments were performed in biological triplicates. Signal reduction compared to control was plotted (as inhibition percentage) as a function of compound concentration. In cases in which an IC50 was calculated, the values were fitted by nonlinear regression (GraphPad Prism 8.0).

The target in a further assay is T3, KAT2B (Homo sapiens, UniProt Q92831).
T3 construct: KAT2B (aa 492–658, 25 nM); purchased Reaction Biology Corporation
Put plainly: HotSpot KAT assay, KAT2B. Particulars: enzyme 25 nM; NI = no inhibition at 200 μM; mean ± SD of three independent experiments. The procedure: The effects of the compounds on other KATs were determined using the HotSpot KAT assay (Reaction Biology Corporation, Malvern, PA, USA) according to the supplier’s procedure. The recombinant catalytic domains of human KAT2A (aa 323–837, 15 nM), KAT2B (aa 492–658, 25 nM), KAT3B (aa 1284–1672, 1 nM), KAT6A (aa 488–778, 10 nM), KAT6B (aa 657–1069, 10 nM), and full length human KAT5 (25 nM) and KAT7 (25 nM) were used. Each enzyme was incubated with the relevant histone peptide [H3 peptide for KAT2A, KAT2B, KAT3B, KAT6A, and KAT7 (2.5–5 μM, depending on the KAT isoform); H2A peptide for KAT5 (1.25 μM); H4 peptide for KAT6B (2.5 μM)] as a substrate and radio-isotope-labeled [^3H]Acetyl-CoA (0.2–1.5 μM, depending on the KAT isoform) as an acetyl donor in the assay buffer [50 mM Tris–HCl (pH 8.0), 50 mM NaCl, 0.1 mM EDTA, 1 mM DTT, 0.1 mM PMSF, 1% DMSO] for 1 h at 30 °C in the presence or absence of various compounds (1% DMSO final) titrated in a 2-fold serial dilution starting at 200 μM. Histone peptide acetylation was assessed by liquid scintillation counting using a Tri-Carb 2800TR Liquid Scintillation Analyzer (Perkin Elmer). Experiments were performed in biological triplicates. Signal reduction compared to control was plotted (as inhibition percentage) as a function of compound concentration. In cases in which an IC50 was calculated, the values were fitted by nonlinear regression (GraphPad Prism 8.0).

Setting [1] is: read-out: IC50 KAT8 (5 nM), enzyme 5 nM, 2-fold serial dilution from 200 μM, NI = no inhibition at 200 μM, mean ± SD of three independent experiments.

Like-named read-outs stand apart in the source and are kept apart here.

T3 sequence (Q92831 492-658): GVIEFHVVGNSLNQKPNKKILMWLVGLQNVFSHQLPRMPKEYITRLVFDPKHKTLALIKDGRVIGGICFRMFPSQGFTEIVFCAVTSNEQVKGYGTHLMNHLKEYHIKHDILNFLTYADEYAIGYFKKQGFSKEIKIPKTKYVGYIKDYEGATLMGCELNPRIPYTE

Broadly, the IC50 is the concentration at which inhibition is half-maximal. In the case of `CC1=NN(c2ccc(C(=O)O)cc2)C(=O)/C1=C\c1cc(C(=O)c2ccccc2[N+](=O)[O-])c[nH]1` [Compound 2, (Z)-4-(3-Methyl-4-((4-(2-nitrobenzoyl)-1H-pyrrol-2-yl)methylene)-5-oxo-4,5-dihydro-1H-pyrazol-1-yl)benzoic Acid], the IC50 on KAT8 (setting [1]) was 86.2 ± 10 µM; at KAT3B, 9.1 ± 0.6 µM; on KAT2B, over 200 µM.

Turning to `CC1=NN(c2ccc(C(=O)O)cc2)C(=O)/C1=C\c1cc(C(=O)c2ccccc2Cl)c[nH]1` [Compound 5, (Z)-4-(4-((4-(2-Chlorobenzoyl)-1H-pyrrol-2-yl)methylene)-3-methyl-5-oxo-4,5-dihydro-1H-pyrazol-1-yl)benzoic Acid], the IC50 at KAT8 (setting [1]) was 88.9 ± 12.1 µM; at KAT3B it was 5.3 ± 0.3 µM; at KAT2B, over 200 µM.

`CC1=NN(c2ccc(C(=O)O)cc2)C(=O)/C1=C\c1cc(C(=O)c2ccccc2C)c[nH]1` [Compound 13, (Z)-4-(3-Methyl-4-((4-(2-methylbenzoyl)-1H-pyrrol-2-yl)methylene)-5-oxo-4,5-dihydro-1H-pyrazol-1-yl)benzoic Acid]: the IC50 at KAT8 (setting [1]) was 95 ± 10.2 µM; on KAT3B it was 8.9 ± 0.6 µM; at KAT2B, over 200 µM.

For the molecule `CC1=NN(c2ccc(C(=O)O)cc2)C(=O)/C1=C\c1cccs1` [Compound 21, (Z)-4-(3-Methyl-5-oxo-4-(thiophen-2-ylmethylene)-4,5-dihydro-1H-pyrazol-1-yl)benzoic Acid], the IC50 at KAT8 (setting [1]) is 20.8 ± 1.2 µM; at KAT3B, 26.5 ± 1.7 µM; against KAT2B, over 200 µM.

Take `CC1=NN(c2ccc(C(=O)O)cc2)C(=O)/C1=C\c1ccccc1` [Compound 22, (Z)-4-(4-Benzylidene-3-methyl-5-oxo-4,5-dihydro-1H-pyrazol-1-yl)benzoic Acid]: the IC50 is 29.2 ± 1.7 µM on KAT8 (setting [1]), over 200 µM at KAT3B and over 200 µM at KAT2B.

Consider `CC1=NN(c2ccc(C(=O)O)cc2)C(=O)/C1=C\c1cc[nH]c1` [Compound 23, (Z)-4-(4-((1H-Pyrrol-3-yl)methylene)-3-methyl-5-oxo-4,5-dihydro-1H-pyrazol-1-yl)benzoic Acid], for which the IC50 was 33 ± 2 µM at KAT8 (setting [1]), over 200 µM at KAT3B and over 200 µM at KAT2B.

As to `CC1=NN(c2ccc(C(=O)O)cc2)C(=O)/C1=C\c1ccn[nH]1` [Compound 24, (Z)-4-(4-((1H-Pyrazol-5-yl)methylene)-3-methyl-5-oxo-4,5-dihydro-1H-pyrazol-1-yl)benzoic Acid], the figures for the IC50 at KAT8 (setting [1]), on KAT3B and on KAT2B were 44.1 ± 3 µM, over 200 µM and over 200 µM, respectively.

As to `CC1=NN(c2ccc(C(=O)O)cc2)C(=O)/C1=C\c1c[nH]cn1` [Compound 25, (Z)-4-(4-((1H-Imidazol-4-yl)methylene)-3-methyl-5-oxo-4,5-dihydro-1H-pyrazol-1-yl)benzoic Acid], the results for the IC50 on KAT8 (setting [1]), on KAT3B and at KAT2B were 31.8 ± 2.1 µM, 29.2 ± 1.7 µM and over 200 µM, respectively.

Turning to `CC1=NN(c2ccc(C(=O)O)cc2)C(=O)/C1=C\c1cc2ccccc2[nH]1` [Compound 26, (Z)-4-(4-((1H-Indol-2-yl)methylene)-3-methyl-5-oxo-4,5-dihydro-1H-pyrazol-1-yl)benzoic Acid], the half-inhibitory concentration (IC50) on KAT8 (setting [1]) was 20.1 ± 0.9 µM; at KAT3B, 1.6 ± 0.08 µM; against KAT2B, over 200 µM.

As for `CC1=NN(c2ccc(C(=O)O)cc2)C(=O)/C1=C\c1c[nH]c2ccccc12` [Compound 27, (Z)-4-(4-((1H-Indol-3-yl)methylene)-3-methyl-5-oxo-4,5-dihydro-1H-pyrazol-1-yl)benzoic Acid], the IC50 on KAT8 (setting [1]) was 38.1 ± 2.9 µM; at KAT3B, 4.6 ± 0.2 µM; against KAT2B, over 200 µM.

For the molecule `CC1=NN(c2ccc(C(=O)O)cc2)C(=O)/C1=C\c1cccn1C` [Compound 28, (Z)-4-(3-Methyl-4-((1-methyl-1H-pyrrol-2-yl)methylene)-5-oxo-4,5-dihydro-1H-pyrazol-1-yl)benzoic Acid], the figures for the IC50 at KAT8 (setting [1]), on KAT3B and against KAT2B were 15.1 ± 1 µM, 20.8 ± 1 µM and over 200 µM, respectively.

For the molecule `CC1=NN(c2ccc(C(=O)O)cc2)C(=O)/C1=C\c1cccn1-c1ccccc1` [Compound 29, (Z)-4-(3-Methyl-5-oxo-4-((1-phenyl-1H-pyrrol-2-yl)methylene)-4,5-dihydro-1H-pyrazol-1-yl)benzoic Acid], the IC50 is 18.6 ± 0.8 µM at KAT8 (setting [1]), 14.6 ± 0.6 µM on KAT3B and over 200 µM on KAT2B.

Take `CC1=NN(c2ccc(C(=O)O)cc2)C(=O)/C1=C(/C)c1ccc[nH]1` [Compound 30, (Z)-4-(4-(1-(1H-Pyrrol-2-yl)ethylidene)-3-methyl-5-oxo-4,5-dihydro-1H-pyrazol-1-yl)benzoic Acid]: the IC50 on KAT8 (setting [1]) is 19.4 ± 0.9 µM; on KAT3B, over 200 µM; on KAT2B, over 200 µM.

On to `Cc1nn(-c2ccc(C(=O)O)cc2)c(O)c1Cc1ccc[nH]1` [Compound 31, 4-(4-((1H-Pyrrol-2-yl)methyl)-5-hydroxy-3-methyl-1H-pyrazol-1-yl)benzoic Acid], for which the IC50 on KAT8 (setting [1]) is 17.2 ± 1.2 µM; on KAT3B, over 200 µM; against KAT2B, over 200 µM.

For `Cc1nn(-c2ccc(C(=O)O)cc2)c(O)c1Cc1ccccc1` [Compound 32, 4-(4-Benzyl-5-hydroxy-3-methyl-1H-pyrazol-1-yl)benzoic Acid], the IC50 on KAT8 (setting [1]) is 26.9 ± 2.3 µM; on KAT3B, over 200 µM; against KAT2B, over 200 µM.

For `CC(C)C1=NN(c2ccc(C(=O)O)cc2)C(=O)/C1=C\c1ccc[nH]1` [Compound 33, (Z)-4-(4-((1H-Pyrrol-2-yl)methylene)-3-isopropyl-5-oxo-4,5-dihydro-1H-pyrazol-1-yl)benzoic Acid], the IC50 is 13.9 ± 0.9 µM on KAT8 (setting [1]), over 200 µM at KAT3B and over 200 µM against KAT2B.

Take `O=C(O)c1ccc(N2N=C(Cc3ccccc3)/C(=C/c3ccc[nH]3)C2=O)cc1` [Compound 35, (Z)-4-(4-((1H-Pyrrol-2-yl)methylene)-3-benzyl-5-oxo-4,5-dihydro-1H-pyrazol-1-yl)benzoic Acid]: the IC50 at KAT8 was 38.1 ± 3.8 µM; on KAT3B, over 200 µM; against KAT2B, over 200 µM.

For the molecule `CC1=NN(c2cccc(C(=O)O)c2)C(=O)/C1=C\c1ccc[nH]1` [Compound 36, (Z)-3-(4-((1H-Pyrrol-2-yl)methylene)-3-methyl-5-oxo-4,5-dihydro-1H-pyrazol-1-yl)benzoic Acid], the IC50 is 19.3 ± 1.3 µM on KAT8 (setting [1]), over 200 µM on KAT3B and over 200 µM against KAT2B.
